Reference: patent US20090182028A1, “Plant Components and Extracts and Uses Thereof” (G.I.M. GESELLSCHAFT-FUR INNOVATIVE MEDIZIN G.M.B.H NFG OHG, priority 2006, published 2009)
“Also recorded” adds a separate entry of the source. Like-named read-outs stand apart in the source and are kept apart here. Values belong to the molecule of their own block, whether it stands above or below them.

What was measured:
Format in all cases: cell-based
human AhR [1] = target: T1, human AhR (Homo sapiens, UniProt P35869); experiment: Yeast AhR assay, format (tubes or microtiterplate) not stated
T1 construct: expressed in transfected cells; host or cells: Saccharomyces cerevisiae strain YCM3 (gift of Charles Miller)
T1 sequence (P35869 11-848): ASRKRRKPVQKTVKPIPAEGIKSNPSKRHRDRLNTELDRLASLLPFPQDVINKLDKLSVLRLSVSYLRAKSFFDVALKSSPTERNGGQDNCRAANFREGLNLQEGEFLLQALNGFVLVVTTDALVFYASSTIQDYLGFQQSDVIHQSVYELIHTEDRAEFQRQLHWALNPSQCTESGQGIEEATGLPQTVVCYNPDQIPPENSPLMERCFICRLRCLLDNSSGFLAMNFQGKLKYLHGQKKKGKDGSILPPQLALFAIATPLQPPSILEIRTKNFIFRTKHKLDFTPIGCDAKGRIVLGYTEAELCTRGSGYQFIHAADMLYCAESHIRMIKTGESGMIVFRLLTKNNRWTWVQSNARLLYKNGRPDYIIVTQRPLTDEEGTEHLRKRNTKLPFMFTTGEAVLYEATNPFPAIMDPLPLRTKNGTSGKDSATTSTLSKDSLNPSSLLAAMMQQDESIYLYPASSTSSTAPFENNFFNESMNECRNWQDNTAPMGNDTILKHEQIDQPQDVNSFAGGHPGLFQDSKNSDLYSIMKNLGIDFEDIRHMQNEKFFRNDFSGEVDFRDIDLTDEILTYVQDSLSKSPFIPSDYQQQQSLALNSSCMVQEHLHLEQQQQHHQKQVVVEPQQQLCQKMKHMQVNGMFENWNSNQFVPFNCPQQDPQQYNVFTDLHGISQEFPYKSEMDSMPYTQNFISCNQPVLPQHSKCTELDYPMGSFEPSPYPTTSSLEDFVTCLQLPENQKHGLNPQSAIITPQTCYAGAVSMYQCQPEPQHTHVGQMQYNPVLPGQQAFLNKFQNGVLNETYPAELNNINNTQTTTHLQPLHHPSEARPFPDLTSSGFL
T1 sequence (P27540 whole entry partner): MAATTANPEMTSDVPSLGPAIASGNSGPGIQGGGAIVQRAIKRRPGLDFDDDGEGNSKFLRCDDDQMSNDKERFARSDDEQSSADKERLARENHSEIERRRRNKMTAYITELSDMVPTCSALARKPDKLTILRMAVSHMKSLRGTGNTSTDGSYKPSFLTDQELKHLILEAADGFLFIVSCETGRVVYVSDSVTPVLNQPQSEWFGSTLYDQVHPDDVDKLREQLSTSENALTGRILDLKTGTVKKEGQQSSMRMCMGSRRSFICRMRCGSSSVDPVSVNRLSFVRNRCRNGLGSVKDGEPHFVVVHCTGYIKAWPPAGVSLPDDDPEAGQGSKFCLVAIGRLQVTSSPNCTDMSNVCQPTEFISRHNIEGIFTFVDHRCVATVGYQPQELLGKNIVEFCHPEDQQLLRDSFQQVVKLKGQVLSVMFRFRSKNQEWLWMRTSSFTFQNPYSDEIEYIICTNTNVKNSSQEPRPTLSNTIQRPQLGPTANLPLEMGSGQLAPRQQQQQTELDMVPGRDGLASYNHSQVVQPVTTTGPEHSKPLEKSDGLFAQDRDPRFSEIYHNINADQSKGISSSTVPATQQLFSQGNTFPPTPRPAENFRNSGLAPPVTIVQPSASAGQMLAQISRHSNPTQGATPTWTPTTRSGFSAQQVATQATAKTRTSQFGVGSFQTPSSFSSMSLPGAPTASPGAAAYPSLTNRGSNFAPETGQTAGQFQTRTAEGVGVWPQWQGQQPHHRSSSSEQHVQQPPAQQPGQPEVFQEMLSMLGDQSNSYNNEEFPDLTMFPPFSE
Source text: (§1) The yeast AhR screen is an in-vitro test to detect transactivating potential of substances on the arylhydrocarbon receptor. The recombinant yeast strain YCM3 of Saccharomyces cerevisiae, which was a present of Charles Miller, was used. The assay procedure was essentially as described by Miller. The human AhR and ARNT genes are integrated into chromosome III of the yeast. The galactose-regulated GAL 1, 10 promotor is accountable for the expression of AhR and ARNT in equal shares by induction with galactose, the carbon source of the medium (GOLD medium-trp). If a ligand of the AhR is present, an AhR/ARNT heterodimer is built and can bind to the five xenobiotic response elements of the lacZ-reporter plasmid and induce the expression of the lacZ-gene. Therefore the transcriptional activation of a ligand is quantified via β-galactosidase activity. […] The yeast AhR assay was performed in 50 ml plastic tubes with conical bottom and in microtiterplates.
(§2) For evaluation the AhR-units are plotted against the concentration (logarithmic scaling). The resulting curve is fitted using a logistic dose response function. The calculation and fitting was performed with Table Curve 2D software (Jandel Scientific).
The equivalent concentrations of the extracts and samples were calculated from the logistic dose-response curve of β-naphtoflavone (FIG. 8) and expressed as nmol β-naphtoflavone per g sample or volume of sample.

human AhR [2] = target: T1, human AhR; experiment: Yeast AhR screen (strain YCM3), assay in microtiterplate
Source text: as §1
A colony of YCM3 was transferred in SCM-trp medium and grown to OD600 of about 2.0. For each experiment a new overnight culture was prepared in SCM-trp. For this purpose a 1:10 dilution of the YCM3 yeast stock in SCM-trp medium was prepared. After incubation overnight the culture was diluted to an OD600 of 0.4 and grown again to an OD600 of 1.0 to 1.5. For the assay the culture was 1:50 diluted in Gold galactose-trp media, which contains 1.2% galactose as the inductor.
1 μl of test substance (dissolved in DMSO) and 100 μl of the yeast culture in galactose media were transferred in the wells (flat bottom) of a 96-well sterile microtiterplate. Each determination was carried out in duplicates. A calibration curve with β-naphtoflavone was performed within each test run. For better results only the inner part of the plate was used for the assay, because of a greater evaporation in the outer wells (row A and H, column 1 and 12). 150 μl of the diluted yeast culture were transferred into the outer wells. The microtiterplate was incubated for 17 h at 30° C. and while shaking.
The disintegration of the assay was performed with N-lauroylsarcosine, a strong detergent. A related method was described by Kippert, who used 1.5 ml centrifuge tubes and a disintegration with a 0.2% sarcosyl-solution. For the microtiterplate assay a modified version was used and the disintegration was performed via a 0.5% sarcosyl-solution. To circumvent a centrifugation of the plate and a transfer of the supernatant in another plate, what would complicate the assay unnecessarily, the calculation of the AhR-units was related to the optical density of 600 nm, instead of the protein level. A similar proceeding was applied by Adachi et al. and Miller.
After incubation 150 μl Z-Sarcosyl-buffer to each well were added. Then the OD was measured at 600 nm. For complete disintegration of the cells the plate was incubated for 20 min at 30° C. Afterwards 50 μl of ONPG-solution (a 1:6 diluted) were added to each well and incubated at 37° C. until a yellow colour had developed. The reaction was stopped by adding of 50 μl 1 M Na2CO3 and the reaction time was noticed. The absorption was measured at 405 nm (reference wavelength 620 nm).
The results of the β-galactosidase-assay of the AhR screen in microtiterplates were referenced to cell density (measured as the optical cell density at a wavelength of 600 nm). The calculation of the AhR-units is realised as follows:
OD405 and OD600 are the optical densities at a wavelength of 405 nm respectively 600 nm and Δt is the incubation time at 37° C. in minutes.
as §2

human AhR [3] = target: T1, human AhR; experiment: Yeast AhR screen (strain YCM3), assay in plastic tubes
Source text: as §1
A colony of YCM3 was transferred in SCM-trp medium and grown to OD600 of about 2.0. For each experiment a new overnight culture was prepared in SCM-trp medium. For this purpose a 1:10 dilution of the YCM3 yeast stock in SCM-trp medium was prepared. After incubation overnight the culture was diluted to an OD600 of 0.4 and grown again to an OD600 of 1.0 to 1.5. For the assay the culture was 1:50 diluted in Gold galactose-trp media, which contains 1.2% galactose as the inductor. 50 μl of test substance (dissolved in DMSO) and 5 ml of this yeast culture were incubated for 17 h at 30° C. while shaking. The tubes have to be in an inclined position for optimal yeast growth. For the blank only 50 μl of DMSO were added to the yeast culture. A calibration curve with β-naphtoflavone was performed within each test run. After incubation cells were collected by centrifugation at 2500 rpm for 5 min. The supernatant was discarded, the pellets were resuspended in 1 ml lacZ-buffer, transferred into 1.5 ml test tubes and centrifuged at 10 000 rpm and 4° C. for 5 min. The supernatant was removed again and the pellets were resuspended in 100 μl lacZ buffer. Disintegration of the yeast cells was performed by vortexing with glass beads (3 times for 30 s with a rest on ice of 15 s between the vortexes). After centrifugation at 10 000 rpm and 4° C. for 10 min, the clear supernatant was used to perform the β-galactosidase and the protein-assay.
For the β-galactosidase-assay 5 μl from each test tube were transferred to a 96-well microtiterplate. 250 μl of a 1:6 diluted o-nitrophenyl-b-galactopyranoside (ONPG)-solution (dilution with lacZ-buffer) were added to each well. The microtiterplate was incubated at 37° C. until a yellow colour had developed. The reaction was stopped by adding 100 μl of 1 M Na2CO3 and the reaction time was noticed. […] Each determination was carried out in duplicates.
For the protein assay a modified method according to Bradford was performed. 5 μl of the supernatant of each test tube were transferred to the microtiterplate and 250 μl of Bio-Rad protein assay reagent (diluted with water 1:10) were added. […] As reference a standard curve with BSA was employed within each test. Each determination was carried out in duplicates.
The expression of β-galactosidase is equivalent to the quantity of the transactivating activity of substances and samples. The specific enzyme activity is expressed in AhR-units, which are the β-galactosidase-activity normalised to the total protein-level. The data were evaluated according Jungbauer et al..
as §2

[4] = in microtiterplate, logistic dose response fit, read-out: Potency
[5] = in plastic tubes, logistic dose response fit
[6] = in microtiterplate, logistic dose response fit

Molecule: O=C(Cc1c[nH]c2ccccc12)c1ccco1 [compound “X”, 1-(2-furanyl)2-(3-indolyl)ethanone]
equivalent concentration (human AhR [1]; preliminary isolate from preparative HPLC): 79 μmol β-naphtoflavone per gram sample

Molecule: CCCCOC(=O)c1ccccc1C(=O)OCCCC [Phtalic acid dibutyl ester]
Potency (mol/l) (human AhR [3]): no activity

Molecule: C[C@]12CC[C@@H]3c4ccc(O)cc4CC[C@H]3[C@@H]1CC[C@@H]2O [17-β-Estradiol]
Potency (mol/l) (human AhR [3]; [5]): no activity

Molecule: CC/C(=C(/CC)c1ccc(O)cc1)c1ccc(O)cc1 [diethylstilbestrol]
transactivation of the AhR (in words) (human AhR [3]; pure compounds in DMSO): failed also in transactivating the AhR

Molecule: COc1ccc(-c2cc(=O)c3c(O)cc(O[C@@H]4O[C@H](CO[C@@H]5O[C@@H](C)[C@H](O)[C@@H](O)[C@H]5O)[C@@H](O)[C@H](O)[C@H]4O)cc3o2)cc1O [Diosmin]
Potency (mol/l) (human AhR [3]; [5]): no activity

Molecule: Oc1ccc([C@H]2COc3cc(O)ccc3C2)cc1 [Equol]
Potency (mol/l) (human AhR [2]): active^c
Potency (mol/l) (human AhR [3]): active^c
transactivation of the AhR (in words) (human AhR [3]; pure compounds in DMSO): a transactivation took place

Molecule: O=c1cc(-c2ccccc2)oc2ccc3ccccc3c12 [β-Naphtoflavone]
EC50 (human AhR [1]; Example 10 text, read-out: EC50 value of the standard compound): ~10 nM
EC50 (human AhR [1]; reference standard, read-out: EC50 value): 28 nM
EC50 (human AhR [2]; [4]): 280 nM
EC50 (human AhR [3]; in plastic tubes, logistic dose response fit, read-out: Potency): 10 nM

Molecule: O=c1c(O)c(-c2ccc(O)c(O)c2)oc2cc(O)cc(O)c12 [Quercetin]
Potency (mol/l) (human AhR [3]; [5]): no activity
transactivation of the AhR (in words) (human AhR [3]; pure compounds in DMSO): no activity; also recorded: do not activate the AhR

Molecule: CC(=O)[C@H]1CC[C@H]2[C@@H]3CCC4=CC(=O)CC[C@]4(C)[C@H]3CC[C@]12C [Progesteron]
Potency (mol/l) (human AhR [3]; [5]): no activity
transactivation of the AhR (in words) (human AhR [3]; pure compounds in DMSO): failed also in transactivating the AhR

Molecule: CC[C@H](CC[C@@H](C)[C@H]1CC[C@H]2[C@@H]3CC=C4C[C@@H](O)CC[C@]4(C)[C@H]3CC[C@]12C)C(C)C [β-Sitosterol]
Potency (mol/l) (human AhR [3]; [5]): no activity
transactivation of the AhR (in words) (human AhR [3]; pure compounds in DMSO): failed also in transactivating the AhR

Molecule: O=c1oc2cc(O)ccc2c2oc3cc(O)ccc3c12 [Coumestrol]
EC50 (human AhR [2]): 1040 nM
EC50 (human AhR [3]): 2090 nM

Molecule: Catechin
Potency (mol/l) (human AhR [3]; [5]): no activity

Molecule: O=c1c(-c2ccc(O)cc2)coc2cc(O)ccc12 [Daidzein]
Potency (mol/l) (human AhR [3]): no activity

Molecule: OCc1c[nH]c2ccccc12 [Indole-3-carbinol]
EC50 (human AhR [1]): 7000 nM
EC50 (human AhR [2]): 7000 nM

Molecule: O=C(O)c1cc(O)c(O)c(O)c1 [Gallic acid]
Potency (mol/l) (human AhR [3]): no activity
transactivation of the AhR (in words) (human AhR [3]): no activity

Molecule: COc1ccc(-c2cc(=O)c3c(OC)c(OC)c(OC)c(OC)c3o2)cc1 [Tangeritin]
Potency (mol/l) (human AhR [3]): no activity
transactivation of the AhR (in words) (human AhR [3]): no activity

Continued, in another order:

EC50 (human AhR [2]; [4]): 125 nM
EC50 (human AhR [3]): 599 nM
Molecule: COc1ccc(-c2coc3cc(O)cc(O)c3c2=O)cc1 [Biochanin A]

EC50 (human AhR [1]): 120 to 920 nM
EC50 (human AhR [2]): 253 nM
EC50 (human AhR [3]): 923 nM
Molecule: COc1ccc(-c2coc3cc(O)ccc3c2=O)cc1 [Formononetin]

Potency (mol/l) (human AhR [2]; [6]): active^c
Potency (mol/l) (human AhR [3]): active^c
transactivation of the AhR (in words) (human AhR [3]; pure compounds in DMSO): a transactivation took place
Molecule: O=c1cc(-c2ccc(O)cc2)oc2cc(O)cc(O)c12 [Apigenin]

Potency (mol/l) (human AhR [3]; [5]): no activity
transactivation of the AhR (in words) (human AhR [3]; pure compounds in DMSO): no activity
Molecule: COc1cc(/C=C/C(=O)O)ccc1O [Ferulic acid]

Potency (mol/l) (human AhR [2]; [6]): active ^c
Potency (mol/l) (human AhR [3]; [5]): active ^c
transactivation of the AhR (in words) (human AhR [3]; pure compounds in DMSO): a transactivation took place
Molecule: O=C1C[C@@H](c2ccc(O)cc2)Oc2cc(O)cc(O)c21 [Naringenin]

Potency (mol/l) (human AhR [3]; [5]): no activity
transactivation of the AhR (in words) (human AhR [3]; pure compounds in DMSO): no activity
Molecule: O=C(O)/C=C/c1ccc(O)c(O)c1 [Caffeic acid]

Potency (mol/l) (human AhR [3]; [5]): no activity
Molecule: Oc1cc(O)c2c(c1)O[C@H](c1ccc(O)c(O)c1)[C@H](O)C2 [Epicatechin]

Potency (mol/l) (human AhR [3]; [5]): no activity
Molecule: O=c1c(-c2ccc(O)cc2)coc2cc(O)cc(O)c12 [Genistein]
transactivation of the AhR (in words) (human AhR [3]; pure compounds in DMSO): no transcriptional activity; also recorded: do not activate the AhR

Potency (mol/l) (human AhR [3]; [5]): no activity
Molecule: O=C(CCc1ccc(O)cc1)c1c(O)cc(O)cc1O [Phloretin]

Potency (mol/l) (human AhR [3]; [5]): no activity
Molecule: COc1cc(/C=C/C(=O)CC(=O)/C=C/c2ccc(O)c(OC)c2)ccc1O [Curcumin]
